Results on ten compounds are retold here after PMC3717557 (Journal of medicinal chemistry, 2012).

The nature of data set [1]: pKa of NH proton by UV absorbance pH titration. The format is physicochemical. The settings on record: dilute phosphate buffer.
A short description of data set [2]: Stability in buffer at 4°C. The format is physicochemical. The settings on record: 0.01 M Tris/HCl pH 7.4, concentration close to saturation.
In data set [3] the target is human α1β2γ2L GABAA receptor (Homo sapiens, UniProt P14867+P18507+P47870). The format is cell-based.
Data set [4] concerns tadpoles. The settings on record: cited from earlier work.
Data set [5] deals with T1, human α1β3 GABAAR (Homo sapiens, UniProt P14867+P28472).
T1 sequence (P14867 28-456): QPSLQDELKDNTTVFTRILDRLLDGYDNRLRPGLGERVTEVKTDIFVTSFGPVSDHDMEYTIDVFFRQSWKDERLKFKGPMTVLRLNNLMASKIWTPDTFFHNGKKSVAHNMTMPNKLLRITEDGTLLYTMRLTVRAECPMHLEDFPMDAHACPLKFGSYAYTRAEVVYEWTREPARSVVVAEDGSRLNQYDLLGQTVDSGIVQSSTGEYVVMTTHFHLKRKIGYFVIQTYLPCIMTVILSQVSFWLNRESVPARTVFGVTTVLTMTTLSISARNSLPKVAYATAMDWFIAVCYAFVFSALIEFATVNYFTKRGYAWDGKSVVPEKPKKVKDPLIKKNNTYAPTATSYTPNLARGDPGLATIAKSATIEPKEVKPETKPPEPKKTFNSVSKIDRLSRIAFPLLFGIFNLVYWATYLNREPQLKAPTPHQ
T1 sequence (P28472 26-473): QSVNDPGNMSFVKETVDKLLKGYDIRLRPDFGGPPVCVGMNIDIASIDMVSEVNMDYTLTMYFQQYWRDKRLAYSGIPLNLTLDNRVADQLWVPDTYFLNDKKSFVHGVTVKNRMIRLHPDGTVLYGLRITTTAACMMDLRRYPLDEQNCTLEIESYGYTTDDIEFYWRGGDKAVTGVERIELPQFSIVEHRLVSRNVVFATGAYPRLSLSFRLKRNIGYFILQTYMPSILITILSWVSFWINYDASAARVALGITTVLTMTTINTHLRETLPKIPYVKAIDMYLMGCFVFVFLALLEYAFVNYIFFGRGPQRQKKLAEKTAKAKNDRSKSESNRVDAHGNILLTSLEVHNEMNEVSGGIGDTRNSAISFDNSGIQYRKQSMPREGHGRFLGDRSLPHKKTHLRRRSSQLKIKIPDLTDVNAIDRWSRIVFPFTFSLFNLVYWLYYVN
The settings on record: cited from earlier work.

For data set [6] the following is noted: cited from earlier work.
For data set [7] the following is noted: cited from earlier work. This is another data set of the same source.
For data set [8] the following is noted: cited from earlier work. This is another data set of the same source.
For data set [9], the system named is GABAA receptor. The settings on record: concentrations close to anesthetic EC50 (65 μM); cited from earlier work.
The mark [10] stands for this setting: read-out: general anesthetic EC50.
Where [11] appears, read: read-out: EC50, tadpole loss of righting reflex.

Molecules are shown by their SMILES. Values after ≈ are worked out from the molar mass of the structure shown. Like-named read-outs stand apart in the source and are kept apart here.

human α1β2γ2L GABAA receptor, sequence (P47870 25-512 limits assumed, one chain of several): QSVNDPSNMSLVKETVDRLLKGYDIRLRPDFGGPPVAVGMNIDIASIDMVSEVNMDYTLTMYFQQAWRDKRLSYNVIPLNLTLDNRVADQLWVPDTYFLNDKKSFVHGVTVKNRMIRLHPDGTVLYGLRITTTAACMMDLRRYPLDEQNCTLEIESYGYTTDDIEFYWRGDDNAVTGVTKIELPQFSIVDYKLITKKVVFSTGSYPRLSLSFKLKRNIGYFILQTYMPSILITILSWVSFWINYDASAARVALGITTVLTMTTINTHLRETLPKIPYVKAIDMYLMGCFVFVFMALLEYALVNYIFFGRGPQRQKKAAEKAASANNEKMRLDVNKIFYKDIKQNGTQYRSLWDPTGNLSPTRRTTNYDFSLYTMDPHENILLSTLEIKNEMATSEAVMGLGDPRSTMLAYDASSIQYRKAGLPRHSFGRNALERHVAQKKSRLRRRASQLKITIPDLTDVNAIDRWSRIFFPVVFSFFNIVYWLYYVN
human α1β2γ2L GABAA receptor, sequence (P18507 40-475, one chain of several): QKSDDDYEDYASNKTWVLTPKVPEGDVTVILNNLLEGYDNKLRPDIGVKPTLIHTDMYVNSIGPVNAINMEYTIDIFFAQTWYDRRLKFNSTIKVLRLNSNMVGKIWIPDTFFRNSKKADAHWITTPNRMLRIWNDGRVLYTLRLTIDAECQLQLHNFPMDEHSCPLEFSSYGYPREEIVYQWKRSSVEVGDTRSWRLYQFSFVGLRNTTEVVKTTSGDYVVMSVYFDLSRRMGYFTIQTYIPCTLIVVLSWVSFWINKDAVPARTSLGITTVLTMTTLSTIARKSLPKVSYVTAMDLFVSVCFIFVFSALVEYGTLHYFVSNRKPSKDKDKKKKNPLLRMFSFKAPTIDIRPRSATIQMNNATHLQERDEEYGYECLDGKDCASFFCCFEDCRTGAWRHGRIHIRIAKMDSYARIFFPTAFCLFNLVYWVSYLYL

`C=CCC1(c2cccc(C3(C(F)(F)F)N=N3)c2)C(=O)NC(=O)N(C)C1=O` (racemic) [(±)-14, (±)-5-Allyl-1-methyl-5-[3-(3-trifluoromethyl-3H-diazirin-3-yl)-phenyl]-pyrimidine-2,4,6-trione]: in [1], the pKa was determined as 7.48 ± 0.08. For the same compound, the “time stable in buffer” value in [2] is reported as “at least 2.5 days”.

As to `NCCCC(=O)O` [GABA, γ-aminobutyric acid], the “GABA concentration response nH” value in [3] (GABA alone) amounted to 1.8 ± 0.1. Take `CCOC(=O)c1cncn1[C@H](C)c1ccccc1` [R-(+)-etomidate]: in data set [4] (setting [10]), the EC50 is 2.3 µM.

For `C=CC[C@@]1(c2cccc(C3(C(F)(F)F)N=N3)c2)C(=O)NC(=O)N(C)C1=O` [R-(−)-14], the “GABA nH in the presence of compound” value in data set [3] (8 μM compound) is 1.0 ± 0.1. Take `C[C@H](c1ccccc1)n1cncc1C(=O)OCc1ccc(C2(C(F)(F)F)N=N2)cc1` [aryldiazirine analog of etomidate]: the “efficiency of α1β3 GABAAR subunit photolabeling” value in [5] is on record as 0.5%. As to `CCC1(c2ccccc2)C(=O)NC(=O)N(C)C1=O` (stereo not drawn) [mephobarbital], the 50% effective concentration (EC50) in [4] (setting [11]) was 90 µM. For the same compound, the solubility in water in data set [6] was 600 µM (≈ 148 µg/mL). The octanol/water partition coefficient in [7] is recorded as 69. Moreover, in data set [8], the pKa is listed as 7.65. `C=CCC1(C(C)C#CCC)C(=O)N=C(O)N(C)C1=O` (stereo not drawn) [methohexital]: in [4] (setting [11]), the EC50 is 20 µM. Regarding `CCCC(C)C1(CC)C(=O)NC(=O)NC1=O` (stereo not drawn) [pentobarbital, 5-ethyl-5-(pentan-2-yl)pyrimidine-2,4,6(1H,3H,5H)-trione], the “fold potentiation of 10 μM GABA currents” value in data set [9] is recorded as 4-6 fold. In addition, the EC50 in data set [4] (read-out: EC50 producing anesthesia in tadpoles) was ~140 µM.

On to `CCC1(c2ccccc2)C(=O)NC(=O)NC1=O` [phenobarbital], for which, in data set [4] (setting [11]), the half-maximal effective concentration (EC50) is 3300 µM. Consider `CC(C)c1cccc(C(C)C)c1O` [propofol], for which, in data set [4] (setting [10]), the half-maximal effective concentration (EC50) is 2.2 µM.
